Reference: patent US6054429A (priority 1996, dated 2000)

The molecules below were run on formalin flinch response in rats. Settings: rat, in vivo.
With `COc1ccc([C@@H]2Sc3ccccc3N(CCN(C)C)C(=O)[C@@H]2OC(C)=O)cc1` [diltiazem] the “effect on Phase 1 response (in words)” value was “without effect” and the “effect on Phase 2 response (in words)” value was “without effect”. For `COC(=O)C1=C(C)NC(C)=C(C(=O)OC)C1c1ccccc1[N+](=O)[O-]` [nifedipine], the “effect on Phase 1 response (in words)” value was “without effect” and the “effect on Phase 2 response (in words)” value was “without effect”. `COCCOC(=O)C1=C(C)NC(C)=C(C(=O)OC(C)C)C1c1cccc([N+](=O)[O-])c1` (centres unmarked) [nimodipine] was tested, and the “effect on Phase 1 response (in words)” value was “without effect” and the “effect on Phase 2 response (in words)” value was “without effect”. With `COc1ccc(CCN(C)CCCC(C#N)(c2ccc(OC)c(OC)c2)C(C)C)cc1OC` (centres unmarked) [verapamil] the “effect on Phase 1 response (in words)” value was “without effect” and the “effect on Phase 2 response (in words)” value was “without effect”.
